Laboratory results reported in patent publication US8445492B2, “Method for inhibiting growth of cancer cells and cell telomere and diseases of cell proliferation by using heteroannelated anthraquinone derivative compounds” (National Defense Medical Center, priority 2008, dated 2013).

Legend:
Assay type in all cases: cell-based
HCT-116 = experiment: NCI DTP in-vitro dose response, Colon Cancer
KM12 = experiment: NCI DTP in-vitro dose response, Colon Cancer
SW-620 = experiment: NCI DTP in-vitro dose response, Colon Cancer
SF-268 = experiment: NCI DTP in-vitro dose response, CNS Cancer
SF-295 = experiment: NCI DTP in-vitro dose response, CNS Cancer
SNB-19 = experiment: NCI DTP in-vitro dose response, CNS Cancer
LOX IMVI = experiment: NCI DTP in-vitro dose response, Melanoma
SK-MEL-28 = experiment: NCI DTP in-vitro dose response, Melanoma
UACC-257 = experiment: NCI DTP in-vitro dose response, Melanoma
ACHN = experiment: NCI DTP in-vitro dose response, Renal Cancer
TK-10 = experiment: NCI DTP in-vitro dose response, Renal Cancer
NCI/ADR-RES = experiment: NCI DTP in-vitro dose response, Breast Cancer
BT-549 = experiment: NCI DTP in-vitro dose response, Breast Cancer
T-47D = experiment: NCI DTP in-vitro dose response, Breast Cancer

O=C1c2ccccc2C(=O)c2c1ccc1nsnc21 [No. 22, Anthra[2,1-c][1,2,5]thiadiazole-6,11-dione]
TGI (HCT-116; HCT-116): 1.06E−5
GI50 (HCT-116; Homo sapiens, HCT-116): 2.84 µM
CC50 (HCT-116; Homo sapiens, HCT-116, read-out: LC50): > 100 µM
Percent Growth (HCT-116; Log10 Concentration −4.0): −31%
Percent Growth (HCT-116; Log10 Concentration −5.0): 1%
Percent Growth (HCT-116; Log10 Concentration −6.0): 91%
Percent Growth (HCT-116; Log10 Concentration −7.0): 97%
Percent Growth (HCT-116; Log10 Concentration −8.0): 99%
GI50 (KM12; Homo sapiens, KM12): 11.4 µM
CC50 (KM12; Homo sapiens, KM12, read-out: LC50): 94.8 µM
TGI (KM12; KM12): 3.28E−5
Percent Growth (KM12; Log10 Concentration −4.0): −53%
Percent Growth (KM12; Log10 Concentration −5.0): 56%
Percent Growth (KM12; Log10 Concentration −6.0): 103%
Percent Growth (KM12; Log10 Concentration −7.0): 108%
Percent Growth (KM12; Log10 Concentration −8.0): 107%
GI50 (SW-620; Homo sapiens, SW-620): 8.55 µM
CC50 (SW-620; Homo sapiens, SW-620, read-out: LC50): 69.2 µM
Percent Growth (SW-620; Log10 Concentration −4.0): −68%
Percent Growth (SW-620; Log10 Concentration −5.0): 46%
Percent Growth (SW-620; Log10 Concentration −6.0): 107%
Percent Growth (SW-620; Log10 Concentration −7.0): 103%
Percent Growth (SW-620; Log10 Concentration −8.0): 106%
TGI (SW-620; SW-620): 2.52E−5
GI50 (SF-268; Homo sapiens, SF-268): 3.55 µM
CC50 (SF-268; Homo sapiens, SF-268, read-out: LC50): > 100 µM
Percent Growth (SF-268; Log10 Concentration −4.0): −46%
Percent Growth (SF-268; Log10 Concentration −5.0): 17%
Percent Growth (SF-268; Log10 Concentration −6.0): 90%
Percent Growth (SF-268; Log10 Concentration −7.0): 98%
Percent Growth (SF-268; Log10 Concentration −8.0): 101%
TGI (SF-268; SF-268): 1.87E−5
GI50 (SF-295; Homo sapiens, SF-295): 3.08 µM
CC50 (SF-295; Homo sapiens, SF-295, read-out: LC50): 93.9 µM
Percent Growth (SF-295; Log10 Concentration −4.0): −51%
Percent Growth (SF-295; Log10 Concentration −5.0): −3%
Percent Growth (SF-295; Log10 Concentration −6.0): 100%
Percent Growth (SF-295; Log10 Concentration −7.0): 105%
Percent Growth (SF-295; Log10 Concentration −8.0): 102%
TGI (SF-295; SF-295): 9.40E−6
GI50 (SNB-19; Homo sapiens, SNB-19): 1.86 µM
CC50 (SNB-19; Homo sapiens, SNB-19, read-out: LC50): 6.43 µM
Percent Growth (SNB-19; Log10 Concentration −4.0): −98%
Percent Growth (SNB-19; Log10 Concentration −5.0): −86%
Percent Growth (SNB-19; Log10 Concentration −6.0): 100%
Percent Growth (SNB-19; Log10 Concentration −7.0): 101%
Percent Growth (SNB-19; Log10 Concentration −8.0): 102%
TGI (SNB-19; SNB-19): 3.46E−6
GI50 (LOX IMVI; Homo sapiens, LOX IMVI): 1.03 µM
CC50 (LOX IMVI; Homo sapiens, LOX IMVI, read-out: LC50): > 100 µM
TGI (LOX IMVI; LOX IMVI): 3.56E−6
Percent Growth (LOX IMVI; Log10 Concentration −4.0): −33%
Percent Growth (LOX IMVI; Log10 Concentration −5.0): −42%
Percent Growth (LOX IMVI; Log10 Concentration −6.0): 51%
Percent Growth (LOX IMVI; Log10 Concentration −7.0): 98%
Percent Growth (LOX IMVI; Log10 Concentration −8.0): 101%
GI50 (SK-MEL-28; Homo sapiens, SK-MEL-28): 9.88 µM
CC50 (SK-MEL-28; Homo sapiens, SK-MEL-28, read-out: LC50): 50.3 µM
Percent Growth (SK-MEL-28; Log10 Concentration −4.0): −93%
Percent Growth (SK-MEL-28; Log10 Concentration −5.0): 50%
Percent Growth (SK-MEL-28; Log10 Concentration −6.0): 107%
Percent Growth (SK-MEL-28; Log10 Concentration −7.0): 106%
Percent Growth (SK-MEL-28; Log10 Concentration −8.0): 103%
TGI (SK-MEL-28; SK-MEL-28): 2.24E−5
GI50 (UACC-257; Homo sapiens, UACC-257): 1.48 µM
CC50 (UACC-257; Homo sapiens, UACC-257, read-out: LC50): 6.21 µM
Percent Growth (UACC-257; Log10 Concentration −4.0): −91%
Percent Growth (UACC-257; Log10 Concentration −5.0): −83%
Percent Growth (UACC-257; Log10 Concentration −6.0): 77%
Percent Growth (UACC-257; Log10 Concentration −7.0): 101%
Percent Growth (UACC-257; Log10 Concentration −8.0): 96%
TGI (UACC-257; UACC-257): 3.03E−6
TGI (ACHN; ACHN): 3.33E−6
GI50 (ACHN; Homo sapiens, ACHN): 1.71 µM
Percent Growth (ACHN; Log10 Concentration −4.0): −39%
Percent Growth (ACHN; Log10 Concentration −5.0): −82%
Percent Growth (ACHN; Log10 Concentration −6.0): 90%
Percent Growth (ACHN; Log10 Concentration −7.0): 114%
Percent Growth (ACHN; Log10 Concentration −8.0): 107%
GI50 (TK-10; Homo sapiens, TK-10): 34.9 µM
CC50 (TK-10; Homo sapiens, TK-10, read-out: LC50): > 100 µM
Percent Growth (TK-10; Log10 Concentration −4.0): −7%
Percent Growth (TK-10; Log10 Concentration −5.0): 118%
Percent Growth (TK-10; Log10 Concentration −6.0): 144%
Percent Growth (TK-10; Log10 Concentration −7.0): 133%
Percent Growth (TK-10; Log10 Concentration −8.0): 117%
TGI (TK-10; TK-10): 8.80E−5
GI50 (NCI/ADR-RES; Homo sapiens, NCI/ADR-RES): 0.432 µM
CC50 (NCI/ADR-RES; Homo sapiens, NCI/ADR-RES, read-out: LC50): > 100 µM
Percent Growth (NCI/ADR-RES; Log10 Concentration −4.0): −17%
Percent Growth (NCI/ADR-RES; Log10 Concentration −5.0): −10%
Percent Growth (NCI/ADR-RES; Log10 Concentration −6.0): 20%
Percent Growth (NCI/ADR-RES; Log10 Concentration −7.0): 102%
Percent Growth (NCI/ADR-RES; Log10 Concentration −8.0): 107%
TGI (NCI/ADR-RES; NCI/ADR-RES): 4.80E−6
TGI (BT-549; BT-549): 3.55E−5
GI50 (BT-549; Homo sapiens, BT-549): 13.1 µM
CC50 (BT-549; Homo sapiens, BT-549, read-out: LC50): 96.2 µM
Percent Growth (BT-549; Log10 Concentration −4.0): −52%
Percent Growth (BT-549; Log10 Concentration −5.0): 64%
Percent Growth (BT-549; Log10 Concentration −6.0): 126%
Percent Growth (BT-549; Log10 Concentration −7.0): 102%
Percent Growth (BT-549; Log10 Concentration −8.0): 92%
GI50 (T-47D; Homo sapiens, T47D): 0.375 µM
CC50 (T-47D; Homo sapiens, T47D, read-out: LC50): 7.79 µM
Percent Growth (T-47D; Log10 Concentration −4.0): −60%
Percent Growth (T-47D; Log10 Concentration −5.0): −59%
Percent Growth (T-47D; Log10 Concentration −6.0): 22%
Percent Growth (T-47D; Log10 Concentration −7.0): 88%
Percent Growth (T-47D; Log10 Concentration −8.0): 91%
TGI (T-47D; T-47D): 1.87E−6
